≈ marks a conversion by molar mass, not a printed value. Where two headings read alike, the source gives them in different places.
Columns and labels:
[1] = test system: M. chimaera CCUG 50989T; test: MIC, anti-mycobacterial profiling; format: cell-based, Mycobacterium chimaera; settings: for MIC: mean of two experiments
[2] = test system: M. xenopi ATCC 19250; test: MIC, anti-mycobacterial profiling; format: cell-based, Mycobacterium xenopi; settings: for MIC: mean of two experiments
[3] = test system: M. abscessus subspecies bolletii; test: MIC, Table 9; format: cell-based, Mycobacterium abscessus; settings: for MIC: M. abscessus subspecies bolletii
[4] = test system: RFB-R1 M. abscessus; test: microbe, parasite or virus in culture; format: cell-based, Mycobacterium abscessus; settings: for MIC: Mycobacteroides abscessus, read-out: RFB-R1 M. abscessus MIC
[5] = test system: M. abscessus Bamboo; test: Caseum surrogate MBC90 (cMBC90) kill assay; format: cell-based, Mycobacterium abscessus; settings: for cMBC90/bMBC90: 5-day assays; for MBC: read-out: cMBC90
Method in brief: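 Exponential M. abscessus Bamboo added 2:1 (vol/wt) to THP-1-derived caseum surrogate at ~10^8 starting CFU/mL, standing culture at 37° C; drug added on day 5 in stationary phase. CFU counted on 7H11 agar; cMBC90 is concentration giving 90% CFU reduction versus drug-free control at day 10.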

[6] = test system: M. szulgai ATCC 35799; test: MIC, anti-mycobacterial profiling; format: cell-based, Mycobacterium szulgai; settings: for MIC: mean of two experiments
[7] = test system: M. simiae ATCC 25275; test: MIC, anti-mycobacterial profiling; format: cell-based, Mycobacterium simiae; settings: for MIC: mean of two experiments
[8] = test system: Δarr M. abscessus; test: MIC assay, isogenic arr-deleted strain; format: cell-based, Mycobacterium abscessus; settings: arr-deleted strain; 90% growth inhibition
Method in brief: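 Two-fold, ten-point dilutions in 7H9 with 2% DMSO; mid-log culture diluted to OD600=0.1 (1×10^7 CFU/mL). Incubated 3 days at 37 °C, shaking 110 RPM; growth = Day 3 minus Day 0 OD600, expressed as percentage of drug-free growth and plotted against concentration. Two biological replicates.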

[9] = test system: M. simiae; test: MIC, Table 9; format: cell-based, Mycobacterium simiae
[10] = test system: M. fortuitum ATCC 6841; test: MIC, anti-mycobacterial profiling; format: cell-based, Mycobacterium fortuitum; settings: for MIC: mean of two experiments
[11] = Mycobacterium xenopi, ATCC19250
[12] = Mycobacteroides abscessus, 120 h
[13] = Mycobacterium szulgai, ATCC35799
[14] = Mycobacterium simiae, ATCC25275
[15] = Mycolicibacterium fortuitum, ATCC6841

## CO[C@H]1/C=C/O[C@@]2(C)Oc3c(C)c(O)c4c(c3C2=O)C2=NC3(CCN(CC(C)C)CC3)NC2=C(NC(=O)/C(C)=C/C=C/[C@H](C)[C@H](O)[C@@H](C)[C@@H](O)[C@@H](C)[C@H](OC(=O)c2cccnc2)[C@@H]1C)C4=O [5m, 25-O-(3-pyridinecarbonyl)-25-O-desacetyrifabutin]
[1]
  Fold improvement (RFB-5m vs RFB): 0.8
  MIC: 0.06 µM (≈ 0.0546 µg/mL)
[2]
  Fold improvement (RFB-5m vs RFB): 4.0
  MIC: 0.005 µM (≈ 0.00455 µg/mL)
[3]; 5m vs rifabutin, subspecies bolletii
  fold improvement: 40
[3]
  MIC: 0.03 µM (≈ 0.0273 µg/mL)
[4]; rpoB H447Y mutant, 90% inhibition
  RFB-R1 M. abscessus MIC: >100 µM
[5]
  cMBC90/bMBC90: 12.5
[5]; caseum surrogate, 5 days, 90% CFU reduction vs drug-free control
  MBC: 2 µM (≈ 1.82 µg/mL)
[6]
  Fold improvement (RFB-5m vs RFB): 1.7
  MIC: 0.006 µM (≈ 0.00546 µg/mL)
[7]
  Fold improvement (RFB-5m vs RFB): 95
  MIC: 0.2 µM (≈ 0.182 µg/mL)
[8]
  Δarr Mab MIC: 0.026 µM
[9]
  MIC: 0.18 µM (≈ 0.164 µg/mL)
[9]; 5m vs rifabutin
  fold improvement: 56
[10]
  Fold improvement (RFB-5m vs RFB): 60
  MIC: 0.02 µM (≈ 0.0182 µg/mL)

## CC[C@H]1OC(=O)[C@H](C)[C@@H](O[C@H]2C[C@@](C)(OC)[C@@H](O)[C@H](C)O2)[C@H](C)[C@@H](O[C@@H]2O[C@H](C)C[C@H](N(C)C)[C@H]2O)[C@](C)(OC)C[C@@H](C)C(=O)[C@H](C)[C@@H](O)[C@]1(C)O [clarithromycin, reference compound]
[1]; CCUG50989T
  MIC: 0.8 µM (≈ 0.598 µg/mL)
[2]; [11]
  MIC: 0.06 µM (≈ 0.0449 µg/mL)
[4]
  MIC: 2.1 µM (≈ 1.57 µg/mL)
[5]
  cMBC90/bMBC90: 64
[5]; [12]
  MBC: 128 µM (≈ 95.7 µg/mL)
[6]; [13]
  MIC: 0.3 µM (≈ 0.224 µg/mL)
[7]; [14]
  MIC: 12 µM (≈ 8.98 µg/mL)
[8]
  Δarr Mab MIC: 1.8 µM
[10]; [15]
  MIC: 3.2 µM (≈ 2.39 µg/mL)

## CO[C@H]1/C=C/O[C@@]2(C)Oc3c(C)c(O)c4c(c3C2=O)C2=NC3(CCN(CC(C)C)CC3)NC2=C(NC(=O)/C(C)=C\C=C\[C@H](C)[C@H](O)[C@@H](C)[C@@H](O)[C@@H](C)[C@H](OC(C)=O)[C@@H]1C)C4=O [rifabutin, reference compound]
[1]; CCUG50989T
  MIC: 0.05 µM (≈ 0.0424 µg/mL)
[2]; [11]
  MIC: 0.02 µM (≈ 0.0169 µg/mL)
[3]; Mycobacteroides abscessus
  MIC: 1.2 µM (≈ 1.02 µg/mL)
[4]
  MIC: > 100 µM
[5]
  cMBC90/bMBC90: 16
[5]; [12]
  MBC: 72 µM (≈ 61 µg/mL)
[6]; [13]
  MIC: 0.01 µM (≈ 0.00847 µg/mL)
[7]; [14]
  MIC: 19 µM (≈ 16.1 µg/mL)
[8]
  Δarr Mab MIC: 0.031 µM
[9]; Mycobacterium simiae
  MIC: 10 µM (≈ 8.47 µg/mL)
[10]; [15]
  MIC: 1.2 µM (≈ 1.02 µg/mL)

From patent US20260109712A1, “RIFAMYCINS FOR NONTUBERCULOUS MYCOBACTERIA” (priority 2022, published 2026)
